This is an account of results in patent US20040248801A1, “Methods and reagents for regulation of cellular responses in biological systems” (priority 2000, published 2004).

One assay deals with B. subtilis 011085. Put plainly: B. subtilis capillary accumulation assay. The class given is cell-based, Bacillus subtilis. Conditions: saccharide residue concentration; 37° C., 30 min. The text has this:
FIG. 4: Results of B. subtilis capillary accumulation assays using ROMP-derived glucose ligands (compound 5-7, Scheme 1). Buffer alone, glucose, or glucose-bearing compounds 5-7 were used as attractants in the capillary accumulation assay. Results are shown for glucose, compound 5, compound 6, and compound 7. Results are the average of at least four trials performed in duplicate and error bars represent single standard deviations.
To test the generality of the observed valency-dependent differences in chemotactic activities and to investigate the role of membrane permeability in responses to our ligands, chemotactic experiments in B. subtilis were conducted. B. subtilis is a gram-positive bacterium that, like gram-negative E. coli, is able to respond to saccharide chemoattractants. In the case of B. subtilis, the multivalent ligands can directly interact with saccharide-sensing receptors, without having to first traverse the outer membrane. Glucose is a chemoattractant for B. subtilis, but galactose is not. Glucose-carrying ligands (compounds 5-7, Scheme 1) were effective chemoattractants for B. subtilis as shown in capillary accumulation assays. […] Free chemoattractant signal glucose had maximal activity as a chemoattractant at 0.5 mM. In analogy to observations with E. coli, as the valency of the ligand increases, the saccharide residue concentration of maximum chemotaxis decreases. […] The results observed indicate that in evolutionarily divergent bacteria E. coli and B. subtilis, the valency of the attractant influences chemotactic response.
E. coli from an overnight culture were grown in LB to OD550 0.4-0.6, washed twice with E. coli chemotaxis buffer, and then partially permeabilized. Bacteria were resuspended in chemotaxis buffer to an OD550 0.1 and utilized in the capillary accumulation assay at 30° C. for 60 min, as previously described. […] Data was analyzed using the Q and Students tests.

Another assay has as its system E. coli AW405. Put plainly: video microscopy motion analysis of bacteria. The class given is cell-based, Escherichia coli. Conditions: first 5-15 seconds after addition of attractant. How it is done: FIG. 2A: Results of video microscopy motion analysis experiments. Bacteria (Escherichia coli) were treated with buffer alone, galactose, or compound 1 or 3 (Scheme 1) at the indicated saccharide concentrations. The results represent the average from at least five independent experiments performed in triplicate. Error bars represent the deviation between per-second averages during the ten second interval.
Ligands functionalized with galactose such as monovalent ligand 1 and multivalent ligand 3, also serve as attractants in vivo. […] To observe the effects of synthetic ligands on tumbling frequency, E. coli were treated with galactose or galactose-bearing ligands, and bacterial motion was recorded and analyzed using the method of Sager et al.. The tumbling frequency was assessed by averaging the mean angular velocity of the paths obtained in the first 5-15 seconds after addition of attractant (FIG. 2A). […]
Partially permeabilized bacteria (25 μM EDTA for 3 min. at room temperature, then quench with 50 μM CaCl2) at an OD550 of 0.1 were placed under a cover slip supported by additional cover slips in the method of Sager et al.. […] The bacterial motion at 28° C. was recorded, and the paths were analyzed using the ExpertVision system. Paths derived from the first 5 to 15 seconds following the introduction of attractant were analyzed. […] Data were analyzed using the Q and Students tests.

In another assay the test system is E. coli. To be noted: galactose as attractant [34]; cited from earlier work.
The next assay has as its system Jurkat cells. In words: Jurkat cell aggregation. The class given is cell-based. How it is done:
Percent of Jurkat cells present in aggregates is plotted against the treatment. […] Aggregate formation could be inhibited by addition of 50 mM methyl a-D-mannopyranoside (a man). Compounds 9-12 were added to a final mannose concentrations of 0.5 μM or 5 μM along with a final ConA concentration of 5 μg/mL. Results are the average of at least three independent experiments and error bars represent single standard deviations.
The ability of Con A clusters formed on ROMP-derived polymers to aggregate Jurkat cells was examined initially by light microscopy (see FIG. 10). […] For Jurkat cells, inhibition occurred even at low concentrations (0.5 μM) of monovalent ligands. […] Increasing the concentration of the multivalent ligand 10-fold (5 μM) abolished aggregation activity, consistent with site saturation. […] The ability of Con A complexed to multivalent ligands to interact with cell surfaces was thus tunable. […]
Cells were pelleted at 400×g, resuspended gently into 50 μL PBS, and then added to slides for visualization at 200× magnification on a Zeiss Axioscope outfitted with the appropriate filter set. Approximately 100-200 cells were counted from random fields on each day.
Clusters were scored for at least two cells in direct contact with each other and expressed as a percentage of the total number of objects (individual cells and clusters) counted. […]

The next assay has as its target T1, His-tagged FGF-8b (Homo sapiens, UniProt P55075).
T1 sequence (P55075 23-215 isoform P55075-3 limits assumed): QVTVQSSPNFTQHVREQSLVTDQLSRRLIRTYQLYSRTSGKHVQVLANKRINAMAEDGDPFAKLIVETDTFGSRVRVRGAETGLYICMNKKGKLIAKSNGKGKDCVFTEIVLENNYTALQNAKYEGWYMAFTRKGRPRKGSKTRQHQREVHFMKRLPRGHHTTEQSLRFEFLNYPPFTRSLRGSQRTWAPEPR
In words: cross-linking of FGF-8b (EGS, SDS-PAGE). The class given is binding. Conditions: increasing ratio of polymer or heparin to FGF-8b. How it is done:
FIGS. 15A and B are illustrations of SDS-PAGE-gels (12%, under reducing conditions) comparing cross-linking of FGF-8b mediated by nickel-chelating polymer (FIG. 15A) and heparin (FIG. 15B). FGF-8b was incubated with polymer 6 for 1 hour at 0° C. The ratio of FGF-8b to polymer was as follows: a. 1:0.001, b. 1:0.003, c. 1:0.01, d. 1:0.03, e. 1:0.1, f. 1:0.3, f. 1:1. EGS (ethylene glycol bis[succinimidylsuccinate]) was added, and cross-linking was allowed to proceed for 5 minutes at 0° C. The reactions were quenched with ethanolamine (excess) for 1 hour at 0° C. Samples were concentrated under vacuum, analyzed on a 12% SDS-PAGE gel under reducing conditions, and detected with Coomassie staining.
Specifically, one of the functions of the oligosaccharide heparin in vitro is to oligomerize FGF ligand proteins and present them to the FGF receptor in a multivalent fashion. […]
FGF-8b was incubated with polymer 6 for 1 hour at 0° C. […] Samples were concentrated under vacuum, analyzed on a 12% SDS-PAGE gel under reducing conditions, and detected with Coomassie staining.
FGF-8b was incubated with heparin (Sigma, porcine intestinal mucosa, 17-19 kDa) for 1 hour at 0° C. […] Samples were concentrated under vacuum, analyzed on a 12% SDS-PAGE gel under reducing conditions, and detected with Coomassie staining. […]

In the case of `O=C(NCCOC1OC(CO)C(O)C(O)C1O)C1C[C@@H]2C=CC1C2` (stereo partly shown) [Compound 5], the “concentration of maximum activity as chemoattractant” value in the assay on B. subtilis 011085 amounted to 1 mM.
As to `O=C[C@H](O)[C@@H](O)[C@@H](O)[C@H](O)CO` [galactose, reference compound], the “mean angular velocity (tumbling frequency) after addition of attractant” value with E. coli AW405 was “the mean angular velocity decreased”. The “number of E. coli accumulated” value in the assay with E. coli is given as 120,000 bacteria.
In the case of `O=C[C@H](O)[C@@H](O)[C@H](O)[C@H](O)CO` [glucose, reference compound], in the assay with B. subtilis 011085, the “concentration of maximum activity as chemoattractant” value was 0.5 mM.
As for `CO[C@H]1O[C@H](CO)[C@@H](O)[C@H](O)[C@@H]1O` [methyl α-D-mannopyranoside], the “effect on Con A aggregate formation” value in the assay with Jurkat cells (50 mM) is “inhibited”. Further, the “effect on Con A-mediated Jurkat cell aggregation” value in the assay with Jurkat cells (ligand 0.5 μM premixed with Con A 5 μg/mL) was “inhibited aggregation”.
heparin: the “cross-linking pattern of FGF-8b” value at His-tagged FGF-8b is on record as “pattern in cross-linking indicative of oligomerization due to a specific ligand/scaffold interaction”.
